The assay concerns BDF1 mice, P388 leukemia ip, median survival T/C. Put plainly: NCI In Vivo Anticancer Drug Screen. Data for tumor model P388 Leukemia (intraperitoneal) in B6D2F1 (BDF1) mice. The settings on record: endpoint: median survival time, higher = longer survival. The method, boiled down: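 Compound-treated tumour-bearing mice were compared with vehicle-treated controls. Survival was recorded, and the value is the treated-group measurement divided by the control-group measurement (T/C).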

The mark [1] stands for this setting: dose: 6.25 mg/kg/injection, schedule: Q01DX009 (ip), vehicle: saline.
Where [2] appears, read: dose: 50.0 mg/kg/injection, schedule: Q01DX009 (ip), vehicle: saline with Tween-80.
[3] abbreviates: dose: 100.0 mg/kg/injection, schedule: Q01DX009 (ip), vehicle: saline with Tween-80.
[4] abbreviates: dose: 200.0 mg/kg/injection, schedule: Q01DX009 (ip), vehicle: saline with Tween-80.
Setting [5] is: dose: 100.0 mg/kg/injection, schedule: Q01DX009 (ip), vehicle: Klucel (hydroxypropylcellulose) (HPC).
The mark [6] stands for this setting: dose: 200.0 mg/kg/injection, schedule: Q01DX009 (ip), vehicle: Klucel (hydroxypropylcellulose) (HPC).
Where [7] appears, read: dose: 400.0 mg/kg/injection, schedule: Q01DX009 (ip), vehicle: Klucel (hydroxypropylcellulose) (HPC).

Our source for the T/C values is PubChem BioAssay AID328 (DTP/NCI, 2004).

Each structure is given as a SMILES string. “And” between values parts separate entries of the source, which are not always exact repeats. Equal values may be shown once. Toxic doses and inconclusive results are not listed.

In the case of `CCCCC(=O)N/N=C(\C)[C@]1(O)Cc2c(O)c3c(c(O)c2[C@@H](OC2CC(N)C(O)C(C)O2)C1)C(=O)c1c(OC)cccc1C3=O` (some centres not stated), the T/C by setting is: (dose: 0.78 mg/kg/injection, schedule: Q01DX009 (ip), vehicle: saline) 109 % of control; (dose: 1.56 mg/kg/injection, schedule: Q01DX009 (ip), vehicle: saline) 109 % of control; (dose: 1.56 mg/kg/injection, schedule: Q01DX009 (ip), vehicle: water) 157 % of control; (dose: 3.12 mg/kg/injection, schedule: Q01DX009 (ip), vehicle: saline) 122 % of control; (dose: 3.12 mg/kg/injection, schedule: Q01DX009 (ip), vehicle: water) 172 % of control; under setting [1], 178 % of control.
Take `CC1CC=CCC1COC(OCC1CC=CCC1C)C1CC=CCC1C` (configuration not stated): the T/C is 104 % of control (dose: 100.0 mg/kg/injection, schedule: Q04DX003 (ip), vehicle: other); 114 % of control (dose: 200.0 mg/kg/injection, schedule: Q04DX003 (ip), vehicle: other); 119 % of control (dose: 400.0 mg/kg/injection, schedule: Q04DX003 (ip), vehicle: other).
For `O=C(/C=C/c1ccc(OCc2ccccc2)cc1)c1ccccc1F`, the T/C is 96 % of control under setting [2], 100 % of control under setting [3] and 96 % of control under setting [4].
As to `CSc1ccc(NC(=O)N(CCCl)N=O)cc1`, the T/C under setting [1] was 100 % of control; the T/C (dose: 6.25 mg/kg/injection, schedule: Q04DX003 (ip), vehicle: saline sonified) was 90 % of control; the T/C (dose: 11.0 mg/kg/injection, schedule: Q04DX003 (ip), vehicle: saline sonified) is 100 % of control; the T/C (dose: 12.5 mg/kg/injection, schedule: Q01DX009 (ip), vehicle: saline) is 100 % of control; the T/C (dose: 12.5 mg/kg/injection, schedule: Q04DX003 (ip), vehicle: saline sonified) was 109 % of control; the T/C (dose: 16.0 mg/kg/injection, schedule: Q04DX003 (ip), vehicle: saline sonified) was 122 % of control. Also, the T/C runs as follows: (dose: 25.0 mg/kg/injection, schedule: Q01DX009 (ip), vehicle: saline) 116 % of control; (dose: 37.5 mg/kg/injection, schedule: Q04DX003 (ip), vehicle: saline sonified) 122 % of control.
Turning to `CCN(CC)CCNc1ccc(C)c2sc3ccc(O)cc3c(=O)c12`, the T/C under setting [2] is 183 % of control and the T/C under setting [3] was 94 % of control.
For the molecule `CCN(CC)CCCC(C)Nc1c2ccc(Cl)cc2nc2ccc(OC)cc12` (configuration not stated), the T/C is 86 % of control (dose: 9.37 mg/kg/injection, schedule: Q01DX009 (ip), vehicle: saline); 90 % of control (dose: 18.75 mg/kg/injection, schedule: Q01DX009 (ip), vehicle: saline); 100 % of control and 109 % of control (dose: 37.5 mg/kg/injection, schedule: Q01DX009 (ip), vehicle: saline); 118 % of control and 120 % of control (dose: 75.0 mg/kg/injection, schedule: Q01DX009 (ip), vehicle: saline); 104 % of control (dose: 75.0 mg/kg/injection, schedule: Q04DX003 (ip), vehicle: saline); 150 % of control (dose: 99.0 mg/kg/injection, schedule: Q04DX003 (ip), vehicle: saline). Further, the T/C (dose: 150.0 mg/kg/injection, schedule: Q04DX003 (ip), vehicle: saline) was 172 % of control.
On to `O=C(O)C1C2CC1C(Cl)C2Cl` (configuration not stated), for which the T/C under setting [2] is 106 % of control, the T/C under setting [3] is 106 % of control and the T/C under setting [4] is 106 % of control.
Take `COc1ccc(C(=O)c2cc(OC)c(OC)c(OC)c2)cc1OC`: the T/C is, setting by setting: under setting [5], 92 % of control; (dose: 100.0 mg/kg/injection, schedule: Q01DX009 (ip), vehicle: saline) 109 % of control; (dose: 100.0 mg/kg/injection, schedule: Q04DX003 (ip), vehicle: Klucel (hydroxypropylcellulose) (HPC)) 95 % of control; under setting [6], 107 % of control; (dose: 200.0 mg/kg/injection, schedule: Q01DX009 (ip), vehicle: saline) 113 % of control; (dose: 200.0 mg/kg/injection, schedule: Q04DX003 (ip), vehicle: Klucel (hydroxypropylcellulose) (HPC)) 104 % of control. Also, the T/C by setting is: under setting [7], 107 % of control; (dose: 400.0 mg/kg/injection, schedule: Q01DX009 (ip), vehicle: saline) 122 % of control; (dose: 400.0 mg/kg/injection, schedule: Q04DX003 (ip), vehicle: Klucel (hydroxypropylcellulose) (HPC)) 95 % of control.
`Cc1ccc(Nc2nnc(N=Nc3ccccc3)s2)cc1C`: the T/C by setting is: (dose: 100.0 mg/kg/injection, schedule: Q01DX001 (ip), vehicle: Klucel (hydroxypropylcellulose) (HPC)) 100 % of control; (dose: 200.0 mg/kg/injection, schedule: Q01DX001 (ip), vehicle: Klucel (hydroxypropylcellulose) (HPC)) 90 % of control; (dose: 400.0 mg/kg/injection, schedule: Q01DX001 (ip), vehicle: Klucel (hydroxypropylcellulose) (HPC)) 100 % of control.
For `Cc1ccc(S(=O)(=O)NCC(C)C)cc1`, the T/C is, setting by setting: (dose: 50.0 mg/kg/injection, schedule: Q01DX009 (ip), vehicle: Klucel (hydroxypropylcellulose) (HPC)) 94 % of control; under setting [5], 86 % of control; under setting [6], 104 % of control; under setting [7], 102 % of control.
As for `CCOC(=O)C(C(=O)OCC)=C(C)OCC`, the T/C was 106 % of control (dose: 6.25 mg/kg/injection, schedule: Q01DX009 (ip), vehicle: saline with Tween-80); 86 % of control (dose: 12.5 mg/kg/injection, schedule: Q01DX009 (ip), vehicle: saline with Tween-80); 97 % of control (dose: 25.0 mg/kg/injection, schedule: Q01DX009 (ip), vehicle: saline with Tween-80); 99 % of control (dose: 25.0 mg/kg/injection, schedule: Q04DX003 (ip), vehicle: saline with Tween-80); 97 % of control under setting [2]; 107 % of control (dose: 50.0 mg/kg/injection, schedule: Q04DX003 (ip), vehicle: saline with Tween-80). Moreover, the T/C was 106 % of control under setting [3]; 90 % of control (dose: 100.0 mg/kg/injection, schedule: Q04DX003 (ip), vehicle: saline with Tween-80); 107 % of control (dose: 200.0 mg/kg/injection, schedule: Q04DX003 (ip), vehicle: saline with Tween-80).
`C=C(C)C(=O)O[C@@H]1C[C@@]2(C)O[C@@H]2C[C@H](O)/C(C)=C/[C@H]2OC(=O)C(=C)[C@@H]21`: the T/C runs as follows: (dose: 6.0 mg/kg/injection, schedule: Q01DX009 (ip), vehicle: saline + alcohol) 113 % of control; (dose: 12.0 mg/kg/injection, schedule: Q01DX009 (ip), vehicle: saline + alcohol) 109 % of control; (dose: 48.0 mg/kg/injection, schedule: Q01DX009 (ip), vehicle: saline + alcohol) 113 % of control.
Take `NC(C(=O)O)C(=O)c1ccccc1` (configuration not stated): the T/C was 100 % of control (dose: 100.0 mg/kg/injection, schedule: Q04DX003 (ip), vehicle: saline sonified); 100 % of control (dose: 200.0 mg/kg/injection, schedule: Q04DX003 (ip), vehicle: saline sonified); 100 % of control (dose: 400.0 mg/kg/injection, schedule: Q04DX003 (ip), vehicle: saline sonified).
As for `c1cncc(-c2ncnc3c2Cc2ccccc2-3)c1`, the T/C was 100 % of control (dose: 75.0 mg/kg/injection, schedule: Q01DX009 (ip), vehicle: Klucel (hydroxypropylcellulose) (HPC)) and 113 % of control (dose: 150.0 mg/kg/injection, schedule: Q01DX009 (ip), vehicle: Klucel (hydroxypropylcellulose) (HPC)).
For `NC(Cc1ccccc1Cl)c1nn[nH]n1` (configuration not stated), the T/C reads like this: (dose: 50.0 mg/kg/injection, schedule: Q04DX002 (ip), vehicle: saline with Tween-80) 100 % of control; (dose: 200.0 mg/kg/injection, schedule: Q04DX002 (ip), vehicle: saline with Tween-80) 121 % of control.
